Results: ChEMBL document CHEMBL6153089, “Design, Synthesis, and Biological Evaluation of Thieno[3,2-d]pyrimidine Derivatives as the First Bifunctional PI3Kδ Isoform Selective/Bromodomain and Extra-Terminal Inhibitors” (J Med Chem, 2025)
Activity calls are given as the source filed them. No cut-off for these calls is given here.

How the values were obtained:
[1] = AUC (0 to t) in female BALB/c mouse at 1 mg/kg, iv measured after 12 hrs by LC-MS/MS analysis; assay type: ADME, organism-based; details: in vivo
[2] = target: PI3K p110 beta/p85 alpha (Homo sapiens) (UniProt P27986+P42338); test: Inhibition of human p110beta/p85alpha at 1 uM relative to control; assay type: protein-complex assay
Chain of PI3K p110 beta/p85 alpha (Homo sapiens) (P27986 2-724 limits assumed): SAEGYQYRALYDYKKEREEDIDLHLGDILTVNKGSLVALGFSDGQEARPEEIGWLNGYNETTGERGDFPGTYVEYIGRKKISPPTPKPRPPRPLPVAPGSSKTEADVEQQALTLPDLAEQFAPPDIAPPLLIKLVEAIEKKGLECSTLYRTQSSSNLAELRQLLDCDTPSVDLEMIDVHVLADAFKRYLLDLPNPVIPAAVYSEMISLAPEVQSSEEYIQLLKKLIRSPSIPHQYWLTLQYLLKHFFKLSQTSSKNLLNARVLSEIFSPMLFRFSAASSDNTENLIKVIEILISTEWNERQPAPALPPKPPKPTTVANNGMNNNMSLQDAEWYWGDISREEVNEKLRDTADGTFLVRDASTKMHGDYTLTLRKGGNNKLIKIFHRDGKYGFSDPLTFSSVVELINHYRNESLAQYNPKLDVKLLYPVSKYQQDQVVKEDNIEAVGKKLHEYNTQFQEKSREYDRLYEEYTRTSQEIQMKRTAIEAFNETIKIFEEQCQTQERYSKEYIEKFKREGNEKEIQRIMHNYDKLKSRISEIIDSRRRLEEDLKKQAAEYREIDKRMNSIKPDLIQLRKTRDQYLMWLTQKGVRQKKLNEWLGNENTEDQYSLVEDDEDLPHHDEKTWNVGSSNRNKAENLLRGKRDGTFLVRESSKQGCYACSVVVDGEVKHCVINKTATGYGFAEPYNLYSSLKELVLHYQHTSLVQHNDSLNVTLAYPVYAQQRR
Chain of PI3K p110 beta/p85 alpha (Homo sapiens) (P42338 whole entry partner): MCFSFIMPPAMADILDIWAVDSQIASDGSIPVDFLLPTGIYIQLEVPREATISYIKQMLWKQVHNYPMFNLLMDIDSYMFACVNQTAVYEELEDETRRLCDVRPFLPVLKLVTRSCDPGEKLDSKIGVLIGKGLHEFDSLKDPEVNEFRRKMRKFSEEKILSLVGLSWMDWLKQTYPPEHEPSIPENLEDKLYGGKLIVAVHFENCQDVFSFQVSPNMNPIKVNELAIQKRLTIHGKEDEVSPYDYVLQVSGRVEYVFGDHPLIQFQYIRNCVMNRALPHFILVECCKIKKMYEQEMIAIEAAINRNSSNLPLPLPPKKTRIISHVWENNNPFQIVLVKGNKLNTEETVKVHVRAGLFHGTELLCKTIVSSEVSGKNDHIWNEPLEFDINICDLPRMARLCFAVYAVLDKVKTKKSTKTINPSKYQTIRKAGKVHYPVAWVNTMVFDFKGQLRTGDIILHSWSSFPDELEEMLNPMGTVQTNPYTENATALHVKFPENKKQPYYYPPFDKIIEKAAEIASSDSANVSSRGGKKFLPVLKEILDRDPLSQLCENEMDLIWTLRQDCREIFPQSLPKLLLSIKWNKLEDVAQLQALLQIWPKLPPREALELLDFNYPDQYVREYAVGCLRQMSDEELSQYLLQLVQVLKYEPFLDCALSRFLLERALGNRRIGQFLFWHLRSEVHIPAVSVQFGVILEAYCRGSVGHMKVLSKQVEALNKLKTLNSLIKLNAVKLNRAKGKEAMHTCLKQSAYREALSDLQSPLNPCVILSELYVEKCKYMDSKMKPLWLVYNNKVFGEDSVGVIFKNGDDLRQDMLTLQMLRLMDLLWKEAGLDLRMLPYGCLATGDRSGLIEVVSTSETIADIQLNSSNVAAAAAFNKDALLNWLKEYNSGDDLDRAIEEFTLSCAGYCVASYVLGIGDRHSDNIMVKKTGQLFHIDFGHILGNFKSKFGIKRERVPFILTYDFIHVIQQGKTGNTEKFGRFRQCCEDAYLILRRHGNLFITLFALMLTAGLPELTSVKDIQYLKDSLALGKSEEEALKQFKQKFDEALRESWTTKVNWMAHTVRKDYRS

[3] = Tmax in female BALB/c mouse at 20 mg/kg, po measured after 24 hrs by LC-MS/MS analysis; assay type: ADME, organism-based; details: in vivo
[4] = target: Bromodomain testis-specific protein (Homo sapiens, UniProt Q58F21); test: Inhibition of His-tagged BRDT-BD1 (unknown origin) incubated for 30 mins in presence of ATP by Alphascreen assay
[5] = Toxicity in female BALB/c mouse model xenografted with human SU-DHL-6 cells assessed as effect on kidney histopathology at 20 mg/kg, po administered once daily via gavage for 15 days by H and E staining based analysis; assay type: organism-based; details: in vivo, 360 h, time 15 day
[6] = target: Glycogen synthase kinase-3 beta (Homo sapiens) (UniProt P49841); test: Inhibition of GSK-3beta phosphorylation in human SU-DHL-4 cells at 0.25 to 1 uM incubated for 12 hrs by Western blot analysis; assay type: cell-based; details: dose 0.25-1 µM
Chain of Glycogen synthase kinase-3 beta (Homo sapiens) (P49841 whole entry, looked up): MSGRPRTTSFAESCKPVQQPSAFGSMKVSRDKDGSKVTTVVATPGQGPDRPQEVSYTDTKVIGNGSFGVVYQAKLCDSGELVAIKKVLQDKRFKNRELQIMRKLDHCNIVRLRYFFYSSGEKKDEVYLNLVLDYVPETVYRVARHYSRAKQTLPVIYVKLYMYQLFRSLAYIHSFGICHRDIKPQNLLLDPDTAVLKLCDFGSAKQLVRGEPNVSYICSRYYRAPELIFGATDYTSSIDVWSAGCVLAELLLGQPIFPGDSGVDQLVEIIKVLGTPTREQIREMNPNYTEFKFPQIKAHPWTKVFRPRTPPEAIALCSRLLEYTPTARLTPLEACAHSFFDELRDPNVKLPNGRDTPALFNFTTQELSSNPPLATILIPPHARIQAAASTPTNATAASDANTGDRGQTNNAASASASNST

[7] = target: T1, Bromodomain-containing protein 4 (Homo sapiens, UniProt O60885); test: Inhibition of His-tagged BRD4-BD1 (unknown origin) incubated for 30 mins in presence of ATP by Alphascreen assay
SU-DHL-6 [8] = test: Induction of apoptosis in human SU-DHL-6 cells assessed as viable cells at 0.25 uM incubated for 24 hrs by Annexin V-FITC/PI staining based flow cytometric analysis (reference value: 61.2 %); assay type: functional; details: read-out: Activity
SU-DHL-6 [9] = test: Induction of apoptosis in human SU-DHL-6 cells assessed as late apoptotic cells at 1 uM incubated for 24 hrs by Annexin V-FITC/PI staining based flow cytometric analysis (reference value: 6.43 %); assay type: functional
[10] = target: PI3-kinase p110-delta/p85-alpha (Homo sapiens) (UniProt P27986+O00329); test: Inhibition of human p110delta/p85alpha at 1 uM relative to control; assay type: protein-complex assay
SUD4 [11] = test: Induction of apoptosis in human SU-DHL-4 cells assessed as late apoptotic cells at 0.25 uM incubated for 24 hrs by Annexin V-FITC/PI staining based flow cytometric analysis (reference value: 6.74 %); assay type: functional
SUD4 [12] = test: Induction of apoptosis in human SU-DHL-4 cells assessed as necrotic cells at 0.5 uM incubated for 24 hrs by Annexin V-FITC/PI staining based flow cytometric analysis (reference value: 0.642 %); assay type: functional
SU-DHL-6 [13] = test: Cell cycle arrest in human SU-DHL-6 cells assessed as accumulation of cells at S phase incubated for 12 hrs by PI staining based flow cytometric analysis; assay type: functional; details: dose 0.25-1 µM
[14] = target: Phosphatidylinositol 4,5-bisphosphate 3-kinase catalytic subunit gamma isoform (Homo sapiens, UniProt P48736); test: Inhibition of human PI3Kgamma at 1 uM relative to control
Chain of Phosphatidylinositol 4,5-bisphosphate 3-kinase catalytic subunit gamma isoform (P48736 whole entry, looked up, canonical isoform): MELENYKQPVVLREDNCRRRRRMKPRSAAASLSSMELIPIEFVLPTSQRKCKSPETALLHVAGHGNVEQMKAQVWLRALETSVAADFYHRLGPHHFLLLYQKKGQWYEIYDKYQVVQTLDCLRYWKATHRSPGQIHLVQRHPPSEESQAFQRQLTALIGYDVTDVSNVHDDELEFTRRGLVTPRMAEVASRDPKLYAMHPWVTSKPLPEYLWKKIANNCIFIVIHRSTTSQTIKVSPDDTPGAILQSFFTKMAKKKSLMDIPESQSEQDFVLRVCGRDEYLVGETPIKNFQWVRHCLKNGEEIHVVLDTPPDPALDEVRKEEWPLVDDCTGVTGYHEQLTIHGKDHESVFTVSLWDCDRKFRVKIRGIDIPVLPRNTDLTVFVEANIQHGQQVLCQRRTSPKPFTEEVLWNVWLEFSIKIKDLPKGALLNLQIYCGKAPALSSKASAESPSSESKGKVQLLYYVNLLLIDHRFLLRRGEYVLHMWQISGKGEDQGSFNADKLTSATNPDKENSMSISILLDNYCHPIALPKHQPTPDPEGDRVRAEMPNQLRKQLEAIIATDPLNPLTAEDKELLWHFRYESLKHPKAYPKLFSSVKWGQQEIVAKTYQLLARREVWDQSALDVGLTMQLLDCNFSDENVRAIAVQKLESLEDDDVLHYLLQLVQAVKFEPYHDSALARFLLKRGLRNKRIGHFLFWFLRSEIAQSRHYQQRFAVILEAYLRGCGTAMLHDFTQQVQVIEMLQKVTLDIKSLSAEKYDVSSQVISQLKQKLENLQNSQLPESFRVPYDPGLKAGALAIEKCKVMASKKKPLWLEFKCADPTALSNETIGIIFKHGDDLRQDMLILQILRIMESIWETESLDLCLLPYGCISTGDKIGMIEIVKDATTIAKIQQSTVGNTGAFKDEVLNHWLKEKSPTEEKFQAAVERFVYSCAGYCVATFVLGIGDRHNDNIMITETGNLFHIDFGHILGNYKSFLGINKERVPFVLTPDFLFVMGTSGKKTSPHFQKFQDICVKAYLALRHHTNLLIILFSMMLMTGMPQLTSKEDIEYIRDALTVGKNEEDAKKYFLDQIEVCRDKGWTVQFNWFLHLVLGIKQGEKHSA

SUD4 [15] = test: Induction of apoptosis in human SU-DHL-4 cells assessed as viable cells at 0.25 uM incubated for 24 hrs by Annexin V-FITC/PI staining based flow cytometric analysis (reference value: 65.2 %); assay type: functional; details: read-out: Activity
[16] = Tmax in female BALB/c mouse at 1 mg/kg, iv measured after 12 hrs by LC-MS/MS analysis; assay type: ADME, organism-based; details: in vivo
SU-DHL-6 [17] = test: Induction of apoptosis in human SU-DHL-6 cells assessed as viable cells at 0.5 uM incubated for 24 hrs by Annexin V-FITC/PI staining based flow cytometric analysis (reference value: 61.2 %); assay type: functional; details: read-out: Activity
SUD4 [18] = test: Induction of apoptosis in human SU-DHL-4 cells assessed as necrotic cells at 0.25 uM incubated for 24 hrs by Annexin V-FITC/PI staining based flow cytometric analysis (reference value: 0.642 %); assay type: functional
SUD4 [19] = test: Induction of apoptosis in human SU-DHL-4 cells assessed as late apoptotic cells at 1 uM incubated for 24 hrs by Annexin V-FITC/PI staining based flow cytometric analysis (reference value: 6.74 %); assay type: functional
[20] = target: Phosphatidylinositol 4,5-bisphosphate 3-kinase catalytic subunit beta isoform (Homo sapiens, UniProt P42338); test: Inhibition of PI3Kbeta (unknown origin) incubated for 2 hrs in presence of ATP by ADP-kinaseGlo reagent based assay
Chain of Phosphatidylinositol 4,5-bisphosphate 3-kinase catalytic subunit beta isoform (P42338 whole entry, canonical isoform): as the sequence (P42338 whole entry partner) above

SUD4 [21] = test: Induction of apoptosis in human SU-DHL-4 cells assessed as necrotic cells at 1 uM incubated for 24 hrs by Annexin V-FITC/PI staining based flow cytometric analysis (reference value: 0.642 %); assay type: functional
[22] = Cmax in female BALB/c mouse at 1 mg/kg, iv measured after 12 hrs by LC-MS/MS analysis; assay type: ADME, organism-based; details: in vivo
[23] = target: Serine/threonine-protein kinase mTOR (Homo sapiens, UniProt P42345); test: Inhibition of mTOR (unknown origin) incubated for 2 hrs in presence of ATP by ADP-kinaseGlo reagent based assay
SU-DHL-6 [24] = test: Antitumor activity against human SU-DHL-6 cells xenografted in female BALB/c mouse model assessed as tumor growth inhibition at 20 mg/kg, po administered once daily via gavage for 15 days relative to control; assay type: functional; details: SU-DHL-6, 360 h, time 15 day, read-out: TGI
SU-DHL-6 [25] = test: Induction of apoptosis in human SU-DHL-6 cells assessed as decrease in Bcl-2 protein expression at 0.25 to 1 uM incubated for 12 hrs by Western blot analysis; assay type: functional, cell-based; details: dose 0.25-1 µM
SU-DHL-6 [26] = test: Antitumor activity against human SU-DHL-6 cells xenografted in female BALB/c mouse model assessed as reduction in c-Myc level in tumor at 20 mg/kg, po administered once daily via gavage for 15 days by Western blot analysis; assay type: functional, organism-based; details: time 15.0 day
SUD4 [27] = test: Antiproliferative against activity human SU-DHL-4 cells assessed as inhibition of cell growth incubated for 72 hrs by Celltiter-luminescence analysis; assay type: functional, cell-based; details: SU-DHL-4, 72 h
[28] = target: T1, Bromodomain-containing protein 4; test: Inhibition of His-tagged BRD4-BD2 (unknown origin) incubated for 30 mins in presence of ATP by Alphascreen assay
SUD4 [29] = test: Induction of apoptosis in human SU-DHL-4 cells assessed as late apoptotic cells at 0.5 uM incubated for 24 hrs by Annexin V-FITC/PI staining based flow cytometric analysis (reference value: 6.74 %); assay type: functional
[30] = target: Bromodomain-containing protein 3 (Homo sapiens, UniProt Q15059); test: Inhibition of His-tagged BRD3-BD1 (unknown origin) incubated for 30 mins in presence of ATP by Alphascreen assay
Chain of Bromodomain-containing protein 3 (Q15059 whole entry): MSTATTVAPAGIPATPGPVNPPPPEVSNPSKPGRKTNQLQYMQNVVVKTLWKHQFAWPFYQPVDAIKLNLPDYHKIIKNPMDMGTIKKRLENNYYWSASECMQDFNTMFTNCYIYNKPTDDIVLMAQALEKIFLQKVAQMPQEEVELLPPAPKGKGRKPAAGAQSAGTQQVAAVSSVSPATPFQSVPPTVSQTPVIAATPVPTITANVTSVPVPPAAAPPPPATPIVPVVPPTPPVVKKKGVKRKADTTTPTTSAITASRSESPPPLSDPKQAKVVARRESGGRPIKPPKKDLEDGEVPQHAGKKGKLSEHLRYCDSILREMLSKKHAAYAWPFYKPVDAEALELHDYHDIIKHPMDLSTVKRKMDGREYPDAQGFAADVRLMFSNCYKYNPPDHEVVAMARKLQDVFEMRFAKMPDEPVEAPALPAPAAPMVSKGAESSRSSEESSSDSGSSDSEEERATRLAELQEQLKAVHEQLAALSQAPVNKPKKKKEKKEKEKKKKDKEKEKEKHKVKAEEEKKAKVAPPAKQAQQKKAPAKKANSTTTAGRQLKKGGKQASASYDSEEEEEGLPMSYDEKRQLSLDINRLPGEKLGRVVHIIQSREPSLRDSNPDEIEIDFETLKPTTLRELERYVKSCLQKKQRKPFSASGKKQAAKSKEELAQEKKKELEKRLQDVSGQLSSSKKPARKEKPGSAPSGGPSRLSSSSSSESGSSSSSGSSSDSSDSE

[31] = target: Phosphatidylinositol 5-phosphate 4-kinase type-2 alpha (Homo sapiens) (UniProt P48426); test: Inhibition of human PIP4K2alpha at 1 uM relative to control
Chain of Phosphatidylinositol 5-phosphate 4-kinase type-2 alpha (Homo sapiens) (P48426 whole entry): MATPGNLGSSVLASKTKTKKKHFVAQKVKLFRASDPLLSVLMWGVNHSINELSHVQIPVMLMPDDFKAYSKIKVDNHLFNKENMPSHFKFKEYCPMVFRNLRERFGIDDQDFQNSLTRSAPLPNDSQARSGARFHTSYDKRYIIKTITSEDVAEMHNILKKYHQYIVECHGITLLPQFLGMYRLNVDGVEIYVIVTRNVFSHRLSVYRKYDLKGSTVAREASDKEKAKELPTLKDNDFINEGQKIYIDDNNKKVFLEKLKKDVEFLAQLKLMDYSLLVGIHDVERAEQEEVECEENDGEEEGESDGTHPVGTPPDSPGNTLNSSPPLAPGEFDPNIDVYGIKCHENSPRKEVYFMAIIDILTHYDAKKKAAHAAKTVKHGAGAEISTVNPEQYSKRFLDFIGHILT

SUD4 [32] = test: Induction of apoptosis in human SU-DHL-4 cells assessed as early apoptotic cells at 0.5 uM incubated for 24 hrs by Annexin V-FITC/PI staining based flow cytometric analysis (reference value: 25.3 %); assay type: functional
SUD4 [33] = test: Cell cycle arrest in human SU-DHL-4 cells assessed as accumulation of cells at S phase incubated for 12 hrs by PI staining based flow cytometric analysis; assay type: functional; details: dose 0.25-1 µM
[34] = target: PI3-kinase p110-alpha/p85-alpha (Homo sapiens) (UniProt P27986+P42336); test: Inhibition of human p110alpha/p85alpha at 1 uM relative to control; assay type: protein-complex assay

Cn1cc(-c2nc(N3CCOCC3)c3sc(CN4CCC(C(C)(C)O)CC4)cc3n2)c2cc[nH]c2c1=O
AUC(0-t) at 12 h [1]: 145 ng·h/mL
inhibition [2]: 44.3%
Tmax [3]: 30 min
IC50 [4]: 46 nM
Activity [5]: Non-toxic
inhibition [6]: Active
IC50 [7]: 19 nM
viability at 0.25 µM (SU-DHL-6 [8]): 53.7%
Activity (SU-DHL-6 [9]): 8.72%
inhibition [10]: 94.1%
Activity (SUD4 [11]): 12.6%
Activity (SUD4 [12]): 2.8%
Activity (SU-DHL-6 [13]): Dose-dependent-effect
inhibition [14]: 57.2%
viability at 0.25 µM (SUD4 [15]): 53.7%
Tmax [16]: 1.98 min
viability at 0.5 µM (SU-DHL-6 [17]): 49.7%
Activity (SUD4 [18]): 1.34%
Activity (SUD4 [19]): 26.2%
IC50 [20]: 4750 nM
Activity (SUD4 [21]): 0.505%
Cmax [22]: 544 ng/mL
IC50 [23]: > 10000 nM
inhibition in vivo at 20 mg/kg (SU-DHL-6 [24]): 70.8%
Activity (SU-DHL-6 [25]): Active; Modest Effect Observed
Activity (SU-DHL-6 [26]): Active
IC50 (SUD4 [27]): 91 nM
IC50 [28]: 2 nM
Activity (SUD4 [29]): 17.3%
IC50 [30]: 32 nM
inhibition [31]: 0.3%
Activity (SUD4 [32]): 30.8%
Activity (SUD4 [33]): Dose-dependent-effect
inhibition [34]: 41%
